Source: patent publication US9944602B2, “Piperidinone herbicides” (E. I. DU PONT DE NEMOURS AND COMPANY, priority 2014, dated 2018)

How the values were obtained:
Type in all cases: in vivo
[1] = test system: barnyardgrass (Echinochloa crus-galli); assay: Test A preemergence barnyardgrass; conditions: 0 to 100 scale; for pest or weed control at 125 g/ha: 125 g ai/ha
Method in brief: (§1)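 Compounds in non-phytotoxic solvent with surfactant, applied preemergence as directed soil spray on seeds in loam–sand blend, or postemergence to plants 2–10 cm tall at one- to two-leaf stage. Greenhouse ~10 d, then visual injury versus untreated controls, 0 (no effect) to 100 (complete control).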

[2] = test system: blackgrass (Alopecurus myosuroides); assay: Test A postemergence blackgrass; conditions: Alopecurus myosuroides, post-emergence, 240 h, 0 to 100 scale, 0 is no effect, 100 is complete control, read-out: Plant response rating, Blackgrass; for pest or weed control at 125 g/ha: 125 g ai/ha; for pest or weed control at 500 g/ha: 500 g ai/ha
Method in brief: as §1

[3] = test system: barnyardgrass (Echinochloa crus-galli); assay: Test B flooded paddy test barnyardgrass; conditions: Echinochloa crus-galli, Table B, Flood, scale 0 to 100, read-out: Plant response rating; for pest or weed control at 250 g/ha: 250 g ai/ha
Method in brief: (§2)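 Plants at 2-leaf stage in pots flooded 3 cm above soil; compounds applied directly into paddy water, depth kept throughout.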

[4] = test system: wheat (Triticum aestivum); assay: Test A postemergence wheat; conditions: Triticum aestivum, post-emergence, 240 h, 0 to 100 scale, 0 is no effect, 100 is complete control, read-out: Plant response rating, Wheat; for plant injury at 125 g/ha: 125 g ai/ha; for plant injury at 500 g/ha: 500 g ai/ha
Method in brief: as §1

[5] = test system: corn (Zea mays); assay: Test A postemergence corn; conditions: Zea mays, post-emergence, 240 h, 0 to 100 scale, 0 is no effect, 100 is complete control; for Corn plant response rating (crop injury, 0 = no effect, 100 = complete kill) at 125 g/ha: 125 g ai/ha; for Corn plant response rating (crop injury, 0 = no effect, 100 = complete kill) at 500 g/ha: 500 g ai/ha
Method in brief: as §1

[6] = test system: ragweed (common ragweed, Ambrosia elatior); assay: Test A postemergence ragweed; conditions: Ambrosia artemisiifolia, post-emergence, 240 h, 0 to 100 scale, 0 is no effect, 100 is complete control, read-out: Plant response rating, Ragweed; for pest or weed control at 125 g/ha: 125 g ai/ha; for pest or weed control at 500 g/ha: 500 g ai/ha
Method in brief: as §1

[7] = test system: ducksalad (Heteranthera limosa); assay: Test B flooded paddy test ducksalad; conditions: Heteranthera limosa, Table B, Flood, scale 0 to 100, read-out: Plant response rating; for pest or weed control at 250 g/ha: 250 g ai/ha
Method in brief: as §2

[8] = test system: ryegrass, Italian (Italian ryegrass, Lolium multiflorum); assay: Test A postemergence ryegrass, Italian; conditions: Lolium multiflorum, post-emergence, 240 h, 0 to 100 scale, 0 is no effect, 100 is complete control, read-out: Plant response rating, Ryegrass, Italian; for pest or weed control at 125 g/ha: 125 g ai/ha; for pest or weed control at 500 g/ha: 500 g ai/ha
Method in brief: as §1

[9] = test system: sedge, umbrella (small-flower umbrella sedge, Cyperus difformis); assay: Test B flooded paddy test sedge, umbrella; conditions: Cyperus difformis, Table B, Flood, scale 0 to 100, read-out: Plant response rating; for pest or weed control at 250 g/ha: 250 g ai/ha
Method in brief: as §2

[10] = test system: barnyardgrass (Echinochloa crus-galli); assay: Test A postemergence barnyardgrass; conditions: Echinochloa crus-galli, post-emergence, 240 h, 0 to 100 scale, 0 is no effect, 100 is complete control, read-out: Plant response rating, Barnyardgrass; for pest or weed control at 125 g/ha: 125 g ai/ha; for pest or weed control at 500 g/ha: 500 g ai/ha
Method in brief: as §1

[11] = test system: foxtail, giant (giant foxtail, Setaria faberii); assay: Test A postemergence foxtail, giant; conditions: Setaria faberi, post-emergence, 240 h, 0 to 100 scale, 0 is no effect, 100 is complete control, read-out: Plant response rating, Foxtail, Giant; for pest or weed control at 125 g/ha: 125 g ai/ha; for pest or weed control at 500 g/ha: 500 g ai/ha
Method in brief: as §1

[12] = test system: galium (catchweed bedstraw, Galium aparine); assay: Test A postemergence galium; conditions: Galium, post-emergence, 240 h, 0 to 100 scale, 0 is no effect, 100 is complete control, read-out: Plant response rating, Galium; for pest or weed control at 125 g/ha: 125 g ai/ha; for pest or weed control at 500 g/ha: 500 g ai/ha
Method in brief: as §1

[13] = test system: foxtail, giant (giant foxtail, Setaria faberii); assay: Test A preemergence foxtail, giant; conditions: Setaria faberi, pre-emergence, 240 h, 0 to 100 scale, 0 no effect, 100 complete control, read-out: Foxtail, Giant plant response rating; for pest or weed control at 125 g/ha: 125 g ai/ha; for pest or weed control at 500 g/ha: 500 g ai/ha
Method in brief: as §1

[14] = test system: ryegrass, Italian (Italian ryegrass, Lolium multiflorum); assay: Test A preemergence ryegrass, Italian; conditions: Lolium multiflorum, pre-emergence, 240 h, 0 to 100 scale, 0 no effect, 100 complete control, read-out: Ryegrass, Italian plant response rating; for pest or weed control at 125 g/ha: 125 g ai/ha; for pest or weed control at 500 g/ha: 500 g ai/ha
Method in brief: as §1

[15] = test system: pigweed (Amaranthus retroflexus); assay: Test A preemergence pigweed; conditions: Amaranthus retroflexus, pre-emergence, 240 h, 0 to 100 scale, 0 no effect, 100 complete control, read-out: Pigweed plant response rating; for pest or weed control at 125 g/ha: 125 g ai/ha; for pest or weed control at 500 g/ha: 500 g ai/ha
Method in brief: as §1

[16] = test system: kochia (Kochia scoparia); assay: Test A preemergence kochia; conditions: Bassia scoparia, pre-emergence, 240 h, 0 to 100 scale, 0 no effect, 100 complete control, read-out: Kochia plant response rating; for pest or weed control at 125 g/ha: 125 g ai/ha; for pest or weed control at 500 g/ha: 500 g ai/ha
Method in brief: as §1

[17] = test system: rice (Oryza sativa); assay: Test B flooded paddy test rice; conditions: Oryza sativa, Table B, Flood, scale 0 to 100, read-out: Plant response rating; for plant injury at 250 g/ha: 250 g ai/ha
Method in brief: as §2

[18] = test system: ragweed (common ragweed, Ambrosia elatior); assay: Test A preemergence ragweed; conditions: Ambrosia artemisiifolia, pre-emergence, 240 h, 0 to 100 scale, 0 no effect, 100 complete control, read-out: Ragweed plant response rating; for pest or weed control at 125 g/ha: 125 g ai/ha; for pest or weed control at 500 g/ha: 500 g ai/ha
Method in brief: as §1

[19] = test system: pigweed (Amaranthus retroflexus); assay: Test A postemergence pigweed; conditions: Amaranthus retroflexus, post-emergence, 240 h, 0 to 100 scale, 0 is no effect, 100 is complete control, read-out: Plant response rating, Pigweed; for pest or weed control at 125 g/ha: 125 g ai/ha; for pest or weed control at 500 g/ha: 500 g ai/ha
Method in brief: as §1

[20] = test system: kochia (Kochia scoparia); assay: Test A postemergence kochia; conditions: Bassia scoparia, post-emergence, 240 h, 0 to 100 scale, 0 is no effect, 100 is complete control, read-out: Plant response rating, Kochia; for pest or weed control at 125 g/ha: 125 g ai/ha; for pest or weed control at 500 g/ha: 500 g ai/ha
Method in brief: as §1

[21] = Echinochloa crus-galli, pre-emergence, 240 h, 0 no effect, 100 complete control, read-out: Barnyardgrass plant response rating

## O=C1NCCC(c2ccc(C(F)(F)F)cc2)C1C(=O)Nc1ccccc1Cl (stereo not shown) [Compound 13, N-(2-chlorophenyl)-2-oxo-4-[4-(trifluoromethyl)phenyl]-3-piperidinecarboxamide]
[1]; 500 g ai/ha, 0 is no effect, 100 is complete control
  Plant response rating, Barnyardgrass: 70
[1]; [21]
  pest or weed control at 125 g/ha: 40%
[2]
  pest or weed control at 125 g/ha: 0%
  pest or weed control at 500 g/ha: 0%
[3]
  pest or weed control at 250 g/ha: 0%
[3]; 1000 g ai/ha
  pest or weed control at 1000 g/ha: 40%
[4]
  plant injury at 125 g/ha: 0%
  plant injury at 500 g/ha: 0%
[5]
  Corn plant response rating (crop injury, 0 = no effect, 100 = complete kill) at 125 g/ha: 0%
  Corn plant response rating (crop injury, 0 = no effect, 100 = complete kill) at 500 g/ha: 0%
[6]
  pest or weed control at 125 g/ha: 0%
  pest or weed control at 500 g/ha: 0%
[7]
  pest or weed control at 250 g/ha: 70%
[7]; 1000 g ai/ha
  pest or weed control at 1000 g/ha: 100%
[8]
  pest or weed control at 125 g/ha: 0%
  pest or weed control at 500 g/ha: 0%
[9]
  pest or weed control at 250 g/ha: 0%
[9]; 1000 g ai/ha
  pest or weed control at 1000 g/ha: 0%
[10]
  pest or weed control at 125 g/ha: 30%
  pest or weed control at 500 g/ha: 90%
[11]
  pest or weed control at 125 g/ha: 30%
  pest or weed control at 500 g/ha: 90%
[12]
  pest or weed control at 125 g/ha: 0%
  pest or weed control at 500 g/ha: 0%
[13]
  pest or weed control at 125 g/ha: 70%
  pest or weed control at 500 g/ha: 90%
[14]
  pest or weed control at 125 g/ha: 0%
  pest or weed control at 500 g/ha: 0%
[15]
  pest or weed control at 125 g/ha: 0%
  pest or weed control at 500 g/ha: 0%
[16]
  pest or weed control at 125 g/ha: 0%
  pest or weed control at 500 g/ha: 40%
[17]
  plant injury at 250 g/ha: 0%
[17]; 1000 g ai/ha
  plant injury at 1000 g/ha: 0%
[18]
  pest or weed control at 125 g/ha: 0%
  pest or weed control at 500 g/ha: 0%
[19]
  pest or weed control at 125 g/ha: 0%
  pest or weed control at 500 g/ha: 0%
[20]
  pest or weed control at 125 g/ha: 0%
  pest or weed control at 500 g/ha: 0%

## O=C1NCC[C@H](c2ccc(F)cc2)[C@H]1C(=O)Nc1ccccc1C(F)(F)F [Compound 57, (3R,4S)-4-(4-fluorophenyl)-2-oxo-N-[2-(trifluoromethyl)phenyl]-3-piperidinecarboxamide]
[1]; [21]
  pest or weed control at 125 g/ha: 30%
[1]; Echinochloa crus-galli, pre-emergence, 240 h, 500 g ai/ha, 0 no effect, 100 complete control, read-out: Barnyardgrass plant response rating
  pest or weed control at 500 g/ha: 70%
[2]
  pest or weed control at 125 g/ha: 0%
  pest or weed control at 500 g/ha: 0%
[3]
  pest or weed control at 250 g/ha: 0%
[4]
  plant injury at 125 g/ha: 0%
  plant injury at 500 g/ha: 0%
[5]
  Corn plant response rating (crop injury, 0 = no effect, 100 = complete kill) at 125 g/ha: 0%
  Corn plant response rating (crop injury, 0 = no effect, 100 = complete kill) at 500 g/ha: 0%
[6]
  pest or weed control at 125 g/ha: 0%
  pest or weed control at 500 g/ha: 0%
[7]
  pest or weed control at 250 g/ha: 40%
[8]
  pest or weed control at 125 g/ha: 0%
  pest or weed control at 500 g/ha: 0%
[9]
  pest or weed control at 250 g/ha: 0%
[10]
  pest or weed control at 125 g/ha: 0%
  pest or weed control at 500 g/ha: 70%
[11]
  pest or weed control at 125 g/ha: 0%
  pest or weed control at 500 g/ha: 60%
[12]
  pest or weed control at 125 g/ha: 0%
  pest or weed control at 500 g/ha: 0%
[13]
  pest or weed control at 125 g/ha: 60%
  pest or weed control at 500 g/ha: 90%
[14]
  pest or weed control at 125 g/ha: 0%
  pest or weed control at 500 g/ha: 0%
[15]
  pest or weed control at 125 g/ha: 0%
  pest or weed control at 500 g/ha: 0%
[16]
  pest or weed control at 125 g/ha: 0%
  pest or weed control at 500 g/ha: 0%
[17]
  plant injury at 250 g/ha: 0%
[18]
  pest or weed control at 125 g/ha: 0%
  pest or weed control at 500 g/ha: 0%
[19]
  pest or weed control at 125 g/ha: 0%
  pest or weed control at 500 g/ha: 0%
[20]
  pest or weed control at 125 g/ha: 0%
  pest or weed control at 500 g/ha: 0%
